Reference: patent US8242118B2, “Arylsulfonamide derivatives for use as CCR3 antagonists in the treatment of inflammatory and immunological disorders” (Axikin Pharmaceuticals Inc., priority 2001, dated 2012)
Structures can show the parent of a compound that is named as a salt.

Legend:
Human CCR3 = target: T1, Human CCR3 (Homo sapiens, UniProt P51677); assay: Receptor binding assay (RBA), [125I]-eotaxin; settings: human CCR3-transformed K562 cells, 0.1 nM [125I]-eotaxin; compounds of about 40 to 90% purity; read-out: Activity grade RBA (IC50 class)
T1 construct: The cloned CCR3 cDNA was constructed with pcDNA3 vector and transfected into a IC562 cell line; expressed in transfected cells
T1 sequence (P51677 1-355): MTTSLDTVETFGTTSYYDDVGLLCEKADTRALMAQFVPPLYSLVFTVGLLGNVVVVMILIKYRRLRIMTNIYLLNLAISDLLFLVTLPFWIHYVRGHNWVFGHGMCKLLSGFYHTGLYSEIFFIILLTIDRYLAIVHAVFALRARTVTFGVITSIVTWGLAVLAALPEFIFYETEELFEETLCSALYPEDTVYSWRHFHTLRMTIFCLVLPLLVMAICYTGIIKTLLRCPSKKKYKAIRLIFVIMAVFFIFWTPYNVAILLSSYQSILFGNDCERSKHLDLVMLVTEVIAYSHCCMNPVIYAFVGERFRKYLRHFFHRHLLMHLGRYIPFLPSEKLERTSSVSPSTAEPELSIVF
Experimental: [Determination of IC50 Values of Compounds in Receptor Binding Assay]
• Human CCR3-transformed K562 cells were used. The cloned CCR3 cDNA was constructed with pcDNA3 vector and transfected into a IC562 cell line. The human CCR3-transformed K562 cells were maintained in RPMI-1640 (Cat.#22400-089, Life Technologies) supplemented with 10% FCS (Cat.#A-1115-L, Hyclone), 55 μM 2-mercaptoethanol (Cat.#21985-023, Life Technologies), 1 mM sodium pyruvate (Cat.#11360-070, Life Technologies), 100 units/ml of penicillin G and 100 μg/ml of streptomycin (Cat.#15140-122, Life Technologies), and 0.4 mg/ml of Geneticin (Cat.#10131-035, Life Technologies)(hereinafter called “culture medium”). Before the receptor binding assay, cells were pretreated with 5 mM sodium butyrate (Cat.#193-01522, Wako)-containing the culture medium (2×10^5 cells/ml) for 20-24 hours to increase the expression of CCR3. (2) Receptor Binding Assay (RBA) • Butyrate-pretreated cells, suspended in binding buffer (25 mM HEPES pH 7.6, 1 mM CaCl2, 5 mM MgCl2, 0.5% BSA, 0.1% NaN3) at a cell density of 2×10^6 cells/ml, were added into 60 μl/well in the 96-well round bottom polypropylene plate (Cat.#3365, Costar). Compounds, diluted with the binding buffer (4-times higher concentration of the final concentration), were added into 30 μl/well in the polypropylene plate. [^125I]-labeled human eotaxin (Cat.#IM290, Amersham Pharmacia Biotech), diluted with the binding buffer at the concentration of 0.4 nM (final concentration; 0.1 nM), was added into 30 μl/well in the polypropylene plate. Total 120 μl/well of binding reaction mixture (60 μl/well of cell suspension, 30 μl/well of compound solution, and 30 μl/well of [^125I]-labeled eotaxin) were incubated in the polypropylene plate for 1 hour at room temperature after the incubation, 100 μl/well of the reaction mixture was transferred to a filtration plate (Cat.#MAFB-N0B, Millipore), and washed with the washing buffer (25 mM HEPES pH 7.6, 1 mM CaCl2, 5 mM MgCl2, 0.5% BSA, 0.1% NaN3, 0.5 M NaCl) twice. The 96-well filtration plate was pretreated with 100 μl/well of 0.5% polyethylenimine (Cat.#P-3143, Sigma) for 2-4 hours at room temperature and washed with the washing buffer twice before use. The non-specific binding was determined by parallel incubation in the presence of 500 nM of non-labeled eotaxin (Cat.#23209, Genzyme Techne). The radioactivities remained on the filter were measured by liquid scintillation counter (TopCount™, Packard) after an addition of 45 μl/well of scintillant (Microscint20, Cat.#6013621, Packard). The inhibition percent at each concentration of compound was calculated, and IC50 values were determined from the inhibition curve. [Determination of IC50 Values of Compounds in Calcium Mobilization Assay] (IC50 Ca2+) (1) Cell • Human CCR3-transformed K562 cells were used. The human CCR3-transformed K562 cells were maintained in RPMI-1640 supplemented with 10% FCS, 55 μM 2-mercaptoethanol (Cat.#21985-023, Life Technologies), 1 mM sodium pyruvate, 100 units/ml of penicillin G and 100 μg/ml of streptomycin and 0.4 mg/ml of Geneticin. Before the calcium mobilization assay, cells were pretreated with 5 mM sodium butyrate-containing the culture medium (2×10^5 cells/ml) for 20-24 hours to increase the expression of CCR3. (2) Calcium Mobilization Assay • Butyrate-pretreated cells were loaded with Fluo-3AM (Cat.#F-1242, Molecular Probes) in loading buffer (Hanks' solution Cat.#05906 Nissui, 20 mM HEPES pH 7.6, 0.1% BSA, 1 mM probenecid Cat.#P-8761 Sigma, 1 μM Fluo-3AM, 0.01% pluronic F-127 Cat.#P-6866 Molecular Probes) at a cell density of 1×10^7 cells/ml. Then, cells were washed with calcium assay buffer (Hanks' solution Cat.#05906 Nissui, 20 mM HEPES pH 7.6, 0.1% BSA, 1 mM Probenecid Cat.#P-8761 Sigma). The cell suspension (3.3×10^6 cells/ml) was added into 60 μl/well in the 96-well clear bottom black plate (Cat.#3904, Costar). […]

| Structure (SMILES) | IC50 (Human CCR3) [µM] | melting point [°C] |
| --- | --- | --- |
| Cc1cc(C)cc(Nc2ccc([N+](=O)[O-])cc2S(=O)(=O)N2CCNCC2)c1 [Example 3-1, N-(3,5-dimethyl-phenyl)-4-nitro-2-(1-piperazinylsulfonyl)aniline dihydrochloride] | < 1 |  |
| O=[N+]([O-])c1ccc(Oc2cccc(Cl)c2Cl)c(S(=O)(=O)N2CCNCC2)c1 [Example 1-82] | 1 to 10 | 173 to 174 |
| CN(C)c1ccc(NS(=O)(=O)c2cc([N+](=O)[O-])ccc2Oc2cc(Cl)cc(Cl)c2)cc1 [Example 4-25] | 1 to 10 | 226 |
| Cl.O=[N+]([O-])c1ccc(Oc2cccc(F)c2)c(S(=O)(=O)N2CCNCC2)c1 [Example 1-15] | 1 to 10 | 227 to 229 |
| Cc1ccc(Oc2ccc([N+](=O)[O-])cc2S(=O)(=O)N2CCNCC2)cc1.Cl [Example 1-16] | > 10 | 188 to 192 |
| Cc1cc(C)cc(Oc2ccc([N+](=O)[O-])cc2S(=O)(=O)N2CCN(Cc3ccccc3)CC2)c1 [Example 4-9] | > 10 | 123 to 124 |
| Cc1cc(C)cc(Oc2ccc([N+](=O)[O-])cc2S(=O)(=O)N2CCC(N3CCCC3)CC2)c1 [Example 4-11] | < 1 | 156 to 158 |
| O=[N+]([O-])c1ccc(Oc2ccc(Cl)c(Cl)c2)c(S(=O)(=O)N2CCNCC2)c1 [Example 1-83] | > 10 | 167 to 168 |
| N#Cc1ccc(Oc2cc(Cl)cc(Cl)c2)c(S(=O)(=O)N2CCN3CCCC3C2)c1 (centres unmarked) [Example 13-12] | < 1 | 161 |
| Cc1cccc(Oc2ccc([N+](=O)[O-])cc2S(=O)(=O)N2CCNCC2)c1.Cl [Example 1-17] | < 1 | 242 to 244 |
| Cc1cc(C)cc(Oc2ccc([N+](=O)[O-])cc2S(=O)(=O)N2CCN(C=O)CC2)c1 [Example 4-10] | > 10 | 210 to 212 |
| O=[N+]([O-])c1ccc(Oc2ccccc2F)c(S(=O)(=O)N2CCNCC2)c1 [Example 1-14] | 1 to 10 | 118 to 120 |
